Reference: US20240075108A1, “HEPATOCELLULAR CARCINOMA TREATMENTS, PROPHYLACTIC THERAPIES, AND COMPOSITIONS FOR USE THEREWITH” (REPAIR BIOTECHNOLOGIES, INC., priority 2020, published 2024)

Tests used:
[1] = test system: CDP-Hep3B cells; experiment: MTT cell viability assay with sorafenib, CDP-Hep3B cells; format: cell-based; details: Homo sapiens, 12000 cells/well, 48 hours, n=3 independent experiments, read-out: calculated IC50 (cell viability)
Protocol: (§1) Human Hep3B hepatocellular carcinoma cells (from ATCC at www.atcc.org/products/all/HB-8064.aspx) were grown in Eagle's minimum essential media (EMEM) supplemented with 10% heat-inactivated FBS, PenStrep (100 units/mL//[…]) and 2mM L-Glutamine.
(§2) Hep3B cells were transduced with either empty lentivirus (MOI=5) or lentivirus harboring CDP (MOI=5). Transduced cells were selected by growth in puromycin (4 μg/mL) to establish stable cell lines of Mock-Hep3B (empty lentivirus) and CDP-Hep3B (lentivirus containing CDP). FIG. 1 is a representative western blot showing the expression of Flag-tagged CDP in CDP-Hep3B cells (“CDP”) and not in Mock-Hep3B cells (“Mock”). […]
(§3) The growth and viability of Mock- and CDP-Hep3B cells were assessed by cell proliferation assay, using the tetrazolium salt 3-[4,5-di-methylthiazol-2yl]-2,5-diphenyl-tetrazolium bromide (MTT) reagent (resources.rndsystems.com/pdfs/datasheets/4890-025-k.pdf). […] Detergent reagent was then added to each well to solubilize the formazan dye prior to measuring the absorbance of each sample in a microplate reader at 570 nm.
(§4) Growth rates of stable cell lines were also obtained in the presence of Sorafenib. […] Cell viability was assessed using the MTT assay after 48 hours as described above.

[2] = test system: Mock-Hep3B cells; experiment: MTT cell viability assay with sorafenib, Mock-Hep3B cells; format: cell-based; details: Homo sapiens, 12000 cells/well, 48 hours, n=3 independent experiments, read-out: calculated IC50 (cell viability)
Protocol: as §1, §2, §3, §4

IC50 [1]: 4.64 ± 0.16 µM
Compound: CNC(=O)c1cc(Oc2ccc(NC(=O)Nc3ccc(Cl)c(C(F)(F)F)c3)cc2)ccn1 [sorafenib, Sorafenib]
IC50 [2]: 4.76 ± 0.62 µM
